According to the NIST ThermoML archive (doi:10.1021/je0503305):
“And” between values parts separate entries of the source, which are not always exact repeats. Equal values may be shown once.

Assays:
[1] = Crystal; for vapor or sublimation pressure: Calculated from knudsen effusion weight loss; for Normal melting temperature: DTA
[2] = Molar enthalpy of transition or fusion; settings: Crystal; DSC

COC(=O)c1ccc(C(=O)O)cc1 [1,4-benzenedicarboxylic acid, monomethyl ester]
[1]
Settings	vapor or sublimation pressure
363.16 K	0.000139 kPa and 0.00014 kPa
365.15 K	0.000169 kPa and 0.000171 kPa and 0.000167 kPa
367.19 K	0.000212 kPa and 0.000209 kPa
370.18 K	0.000289 kPa and 0.000294 kPa and 0.000286 kPa
372.17 K	0.000361 kPa and 0.000363 kPa and 0.000354 kPa
374.2 K	0.000452 kPa and 0.000449 kPa and 0.000439 kPa
377.37 K	0.00063 kPa and 0.000621 kPa and 0.00062 kPa
379.26 K	0.000768 kPa and 0.000743 kPa and 0.000739 kPa
381.51 K	0.00094 kPa and 0.000931 kPa and 0.000926 kPa

Settings	Molar enthalpy of transition or fusion [kcal/mol]	Normal melting temperature [°C]
[1]	–	219.39
[2]	9.01	–

COC(=O)c1cccc(C(=O)O)c1 [1,3-benzenedicarboxylic acid, monomethyl ester]
[1]
Settings	vapor or sublimation pressure
359.26 K	0.000134 kPa and 0.000136 kPa
361.24 K	0.000172 kPa and 0.000169 kPa
363.28 K	0.000211 kPa and 0.00021 kPa and 0.000202 kPa
365.26 K	0.000256 kPa and 0.000252 kPa and 0.000264 kPa
367.13 K	0.000313 kPa and 0.000311 kPa
369.28 K	0.000397 kPa and 0.000399 kPa and 0.000382 kPa
371.24 K	0.000499 kPa and 0.000487 kPa and 0.000474 kPa
373.12 K	0.000588 kPa and 0.000586 kPa and 0.000569 kPa
375.27 K	0.000773 kPa and 0.000759 kPa and 0.000741 kPa
377.24 K	0.000953 kPa and 0.000928 kPa and 0.000917 kPa
379.12 K	0.001122 kPa and 0.001111 kPa

Settings	Molar enthalpy of transition or fusion [kcal/mol]	Normal melting temperature [°C]
[1]	–	193.53
[2]	8.72	–

COC(=O)c1ccccc1C(=O)O [phthalic acid, monomethyl ester]
[1]
Settings	vapor or sublimation pressure
335.28 K	0.000112 kPa and 0.000118 kPa and 0.000115 kPa
337.26 K	0.000154 kPa and 0.000148 kPa and 0.000149 kPa
339.2 K	0.000184 kPa and 0.000187 kPa and 0.00019 kPa
341.24 K	0.000239 kPa and 0.000243 kPa
343.11 K	0.000298 kPa and 0.000306 kPa and 0.000301 kPa
345.27 K	0.000388 kPa and 0.000386 kPa
347.24 K	0.000471 kPa and 0.00048 kPa and 0.000468 kPa
349.12 K	0.000579 kPa and 0.000575 kPa and 0.000593 kPa
351.06 K	0.000743 kPa and 0.000733 kPa and 0.000751 kPa
353.23 K	0.000981 kPa and 0.000964 kPa and 0.000948 kPa
355.28 K	0.001233 kPa and 0.001242 kPa

Settings	Molar enthalpy of transition or fusion [kcal/mol]	Normal melting temperature [°C]
[1]	–	84.4
[2]	5.17	–
